# Assay results reported in US20260232767A1, “INTERLEUKIN-23 RECEPTOR ANTAGONIST PEPTIDES FOR USE IN THE TREATMENT OF PSORIASIS” (Janssen Pharmaceutica NV, priority 2023, published 2026).
# Tested on: subjects with moderate-to-severe plaque psoriasis
# Test: PASI response, Example 1 16-week dose-ranging study
# Format: in vivo, human
# Procedure: The Psoriasis Area and Severity Index (PASI) is a system used for assessing and grading the severity of psoriatic lesions and their response to therapy. In the PASI system, the body is divided into four regions: the head, trunk, upper extremities, and lower extremities. Each of these areas is assessed and scored separately for erythema, induration, and scaling, which are each rated on a scale of 0 to 4 and extent of involvement on a scale of 0 to 6. The PASI produces a numeric score (a “PASI score”) that can range from 0 to 72. A higher score indicates more severe disease.
# This was a randomized, double-blind, placebo-controlled, dose-ranging, parallel group, multicenter, interventional study in subjects with moderate-to-severe plaque psoriasis. A target of 240 subjects were enrolled in this study with 40 subjects planned per intervention group.
# Clinician-reported outcomes including Psoriasis Area and Severity Index (PASI), Body Surface Area (BSA), Investigator's Global Assessment (IGA), Nail Psoriasis Area and Severity Index (NAPSI), Fingernail Physician's Global Assessment (f-PGA), Static Physician's Global Assessment of Genitalia (s-PGA-G), Physician's Global Assessment of Hands and/or Feet (hf-PGA), and Scalp Specific Investigator Global Assessment (ss-IGA) were obtained at Week 0, 8, and 16. PASI and IGA were also obtained at Weeks 1, 2, 4, and 12, and at Week 20, four weeks after the administration of the tablets has stopped.
# The primary efficacy endpoint was the proportion of participants achieving a PASI 75 response at Week 16, defined as at least a 75% reduction from baseline in PASI total score.
# For the primary analysis, composite strategy (non-responder imputation) was applied to address intercurrent event #1 (Discontinuation of study intervention due to lack of efficacy or due to an AE of worsening of psoriasis) and #2 (initiation of a protocol-prohibited medication or therapy that could improve psoriasis); and treatment policy strategy (observed data) was applied to intercurrent event #3 (Discontinuation of study intervention due to other reasons). Participants with missing data after application of ICEs are also considered as non-responders.
# In addition to the response analysis, pairwise comparisons of each treatment group versus the placebo group were performed for the primary endpoint of PASI 75 at Week 16. Pairwise comparisons were not adjusted for multiplicity. The Cochran-Mantel-Haenszel chi-square statistic stratified by baseline weight category (≤90 kg, >90 kg) at a 2-sided significance level of 0.05 was used (Table 2).
# [1] = 100 mg BID, Week 16, trough plasma conc Q1 to <Q2
# [2] = 100 mg BID, Week 16, trough plasma conc Q2 to <Q3
# [3] = 100 mg BID, Week 16, trough plasma conc ≥Q3
# [4] = 100 mg QD, Week 16, peak plasma conc. <Q1, N=2
# [5] = 100 mg QD, Week 16, peak plasma conc. Q1 to <Q2, N=2
# [6] = 100 mg QD, Week 16, peak plasma conc. Q2 to <Q3, N=2
# [7] = 100 mg QD, Week 16, peak plasma conc. ≥Q3, N=2
# [8] = 100 mg QD, Week 16, trough plasma conc <Q1
# [9] = 100 mg QD, Week 16, trough plasma conc Q1 to <Q2
# [10] = 100 mg QD, Week 16, trough plasma conc Q2 to <Q3
# [11] = 100 mg QD, Week 16, trough plasma conc ≥Q3
# [12] = Combined doses, Week 16, peak plasma conc. <Q1, N=10
# [13] = Combined doses, Week 16, peak plasma conc. Q1 to <Q2, N=11
# [14] = Combined doses, Week 16, peak plasma conc. Q2 to <Q3, N=10
# [15] = Combined doses, Week 16, peak plasma conc. ≥Q3, N=11
# [16] = Combined doses, Week 16, trough plasma conc <Q1
# [17] = Combined doses, Week 16, trough plasma conc Q1 to <Q2
smiles,measurement,setting,value
"CC(=O)NCCCC[C@@H]1NC(=O)[C@H](Cc2c[nH]c3c(C)cccc23)NC(=O)[C@H]([C@@H](C)O)NC(=O)[C@H](CC(N)=O)NC(=O)[C@@H](NC(C)=O)C(C)(C)SSC(C)(C)[C@@H](C(=O)N[C@@H](Cc2ccc(OCCN)cc2)C(=O)N[C@@H](Cc2ccc3ccccc3c2)C(=O)NC2(C(=O)N[C@@H](CCC(=O)O)C(=O)N[C@@H](CC(N)=O)C(=O)N[C@@H](Cc3cccnc3)C(=O)N(C)CC(N)=O)CCOCC2)NC1=O [IL-23 receptor antagonist peptide, Ac-[Pen]*-N-T-[W(7-Me)]-[Lys(Ac)]-[Pen]*-Phe[4-(2-aminoethoxy)]-[2-Nal]-[THP]-E-N-[3-Pal]-Sarc-NH2 (*[Pen]-[Pen]* formdisulfidebond)]","PASI 100% Improvement, subjects",[1],2 (40.0%)
same,"PASI ≥75% Improvement, subjects",[1],4 (80.0%)
same,"PASI ≥90% Improvement, subjects",[1],3 (60.0%)
same,"PASI 100% Improvement, subjects",[2],2 (40.0%)
same,"PASI ≥75% Improvement, subjects",[2],5 (100.0%)
same,"PASI ≥90% Improvement, subjects",[2],3 (60.0%)
same,"PASI 100% Improvement, subjects",[3],2 (40.0%)
same,"PASI ≥75% Improvement, subjects",[3],4 (80.0%)
same,"PASI ≥90% Improvement, subjects",[3],4 (80.0%)
same,Subjects achieving PASI 75,"100 mg QD, Week 4",16.3%
same,PASI 75 treatment difference vs placebo,"100 mg QD, Week 16",55.8%
same,PASI 90 treatment difference vs placebo,"100 mg QD, Week 16","44.2% (28.6%,"
same,PASI 100 treatment difference vs placebo,"100 mg QD, Week 16","23.3% (10.7%,"
same,Subjects achieving PASI 90,"100 mg QD, Week 16",20 (46.5%)
same,Subjects achieving PASI 100,"100 mg QD, Week 16",10 (23.3%)
same,"PASI 75, %","100 mg QD, Week 16, N=43",65.1%
same,"PASI 90, %","100 mg QD, Week 16, N=43",46.5%
same,"PASI 100, %","100 mg QD, Week 16, N=43",23.3%
same,"PASI 100% Improvement, n subjects",[4],0
same,"PASI ≥75% Improvement, % subjects",[4],(100.0%)
same,"PASI ≥75% Improvement, n subjects",[4],2
same,"PASI ≥90% Improvement, % subjects",[4],(50.0%)
same,"PASI ≥90% Improvement, n subjects",[4],1
same,"PASI 100% Improvement, % subjects",[5],(50.0%)
same,"PASI 100% Improvement, n subjects",[5],1
same,"PASI ≥75% Improvement, % subjects",[5],(100.0%)
same,"PASI ≥75% Improvement, n subjects",[5],2
same,"PASI ≥90% Improvement, % subjects",[5],(50.0%)
same,"PASI ≥90% Improvement, n subjects",[5],1
same,"PASI 100% Improvement, n subjects",[6],0
same,"PASI ≥75% Improvement, % subjects",[6],(50.0%)
same,"PASI ≥75% Improvement, n subjects",[6],1
same,"PASI ≥90% Improvement, % subjects",[6],(50.0%)
same,"PASI ≥90% Improvement, n subjects",[6],1
same,"PASI 100% Improvement, n subjects",[7],0
same,"PASI ≥75% Improvement, n subjects",[7],1
same,"PASI ≥90% Improvement, % subjects",[7],(50.0%)
same,"PASI ≥90% Improvement, n subjects",[7],1
same,"PASI 100% Improvement, subjects",[8],2 (40.0%)
same,"PASI ≥75% Improvement, subjects",[8],3 (60.0%)
same,"PASI ≥90% Improvement, subjects",[8],3 (60.0%)
same,"PASI 100% Improvement, subjects",[9],0
same,"PASI ≥75% Improvement, subjects",[9],3 (60.0%)
same,"PASI ≥90% Improvement, subjects",[9],3 (60.0%)
same,"PASI 100% Improvement, subjects",[10],1 (20.0%)
same,"PASI ≥75% Improvement, subjects",[10],3 (60.0%)
same,"PASI ≥90% Improvement, subjects",[10],2 (40.0%)
same,"PASI 100% Improvement, subjects",[11],1 (20.0%)
same,"PASI ≥75% Improvement, subjects",[11],3 (60.0%)
same,"PASI ≥90% Improvement, subjects",[11],2 (40.0%)
same,"PASI 100% Improvement, n subjects",[12],0
same,"PASI ≥75% Improvement, n subjects",[12],4
same,"PASI ≥90% Improvement, % subjects",[12],(30.0%)
same,"PASI ≥90% Improvement, n subjects",[12],3
same,"PASI 100% Improvement, % subjects",[13],(18.2%)
same,"PASI 100% Improvement, n subjects",[13],2
same,"PASI ≥75% Improvement, n subjects",[13],10
same,"PASI ≥90% Improvement, % subjects",[13],(63.6%)
same,"PASI ≥90% Improvement, n subjects",[13],7
same,"PASI 100% Improvement, % subjects",[14],(10.0%)
same,"PASI 100% Improvement, n subjects",[14],1
same,"PASI ≥75% Improvement, n subjects",[14],7
same,"PASI ≥90% Improvement, % subjects",[14],(60.0%)
same,"PASI ≥90% Improvement, n subjects",[14],6
same,"PASI 100% Improvement, % subjects",[15],(36.4%)
same,"PASI 100% Improvement, n subjects",[15],4
same,"PASI ≥75% Improvement, n subjects",[15],8
same,"PASI ≥90% Improvement, % subjects",[15],(63.6%)
same,"PASI ≥90% Improvement, n subjects",[15],7
same,"PASI 100% Improvement, subjects",[16],7 (26.9%)
same,"PASI ≥75% Improvement, subjects",[16],13 (50.0%)
same,"PASI ≥90% Improvement, subjects",[16],11 (42.3%)
same,"PASI 100% Improvement, subjects",[17],4 (15.4%)
same,"PASI ≥75% Improvement, subjects",[17],12 (46.2%)
same,"PASI ≥90% Improvement, subjects",[17],7 (26.9%)
